Reference: patent US20240034735A1, “NOVEL COMPOUNDS” (AC Immune SA, priority 2022, published 2024)
Like-named read-outs stand apart in the source and are kept apart here.

Tested on: NLRP3 inflammasome pathway
Assay: NLRP3 inflammasome pathway activation assay (IL-1β release, HTRF)
Assay type: cell-based, Human
Details: for IC50: IL-1β release, PMA-differentiated, LPS-primed cells; for inhibition of IL-1 beta release compared to the equivalent compounds in which Z1=C and Z2=N: human monocyte-like cells, MSU or Nigericin as activators, 8 vs 13, 11 vs 12
Experimental: The following assays were used to determine the inhibitory activity of test compounds on the NLRP3 inflammasome pathway using common stimuli Nigericin (Invivogen) or monosodium urate crystals (MSU) (Invivogen).
Human monocyte-like cells were seeded at 25000 per well in a 384-well plate and were differentiated overnight into macrophages with 10 ng/ml PMA (Phorbol Myristate Acetate). The following day, medium containing 10 ng/ml LPS (Lipopolysaccharide) was added.
For IL-1β quantification, supernatants were analyzed using HTRF kit according to the manufacturer's instructions (Cisbio 62HIL1BPEH), Briefly, in a 384-well ProxiPlate™ microplate, 8 μl of sample was mixed, with 5 μl of Anti-IL1β Cryptate antibody (40×) and Anti-IL1β XL antibody (40×). Then, incubated overnight at RT. Reading was done using an EnVision Reader (PerkinElmer).

[1] = Homo sapiens, stimulation with MSU 200 μg/ml for 3 h, read-out: IC50 Human monocyte-like cells MSU
[2] = Homo sapiens, stimulation with Nigericin 3.75 μM for 3 h, read-out: IC50 Human monocyte-like cells Nigericin
[3] = stimulation with MSU 200 μg/ml for 3 h, read-out: IC50 Human monocyte-like cells MSU
[4] = stimulation with Nigericin 3.75 μM for 3 h, read-out: IC50 Human monocyte-like cells Nigericin

Row | SMILES | IC50 [1] [µM] | IC50 [2] [µM] | other results
1 | CC1(O)CC(Oc2nnc(-c3ccc(C(F)(F)F)cc3O)n3cccc23)C1 (centres unmarked) [Example 8, 2-(1-((1s,3s)-3-hydroxy-3-methylcyclobutoxy)pyrrolo[1,2-d][1,2,4]triazin-4-yl)-5-(trifluoromethyl)phenol] | < 0.005 | 0.005 to 0.02 | inhibition of IL-1 beta release compared to the equivalent compounds in which Z1=C and Z2=N: significantly increased inhibition
2 | C[C@]1(O)C[C@@H](Nc2nnc(-c3ccc(C(F)(F)F)cc3O)c3cccn23)C1 [Example 11, 2-(4-(((1s,3s)-3-hydroxy-3-methylcyclobutyl)-amino)pyrrolo[1,2-d][1,2,4]triazin-1-yl)-5-(trifluoromethyl)phenol] | < 0.005 | 0.005 to 0.02 | inhibition of IL-1 beta release compared to the equivalent compounds in which Z1=C and Z2=N: significantly increased inhibition
3 | CN1CCC[C@@H](Nc2nnc(-c3ccc(C(F)(F)F)cc3O)n3nccc23)C1 [Example 2, (R)-2-(4-((1-methylpiperidin-3-yl)amino)pyrazolo[1,5-d][1,2,4]triazin-7-yl)-5-(trifluoromethyl)phenol] | 0.005 to 0.02 | – | –
4 | CN1CCC[C@@H](Nc2nnc(-c3ccc(OC(F)F)cc3)n3cccc23)C1 [Example 3, (R)-4-(4-(difluoromethoxy)phenyl)-N-(1-methylpiperidin-3-yl)pyrrolo[1,2-d][1,2,4]triazin-1-amine] | 0.005 to 0.02 | – | –
5 | CN1CCC[C@@H](Nc2nnc(-c3ccc(Cl)cc3)n3ccnc23)C1 [Example 6, 5-(4-Chlorophenyl)-N-[(3R)-1-methyl-3-piperidyl]imidazo[1,2-d][1,2,4]triazin-8-amine] | 0.02 to 0.1 | – | –
6 | CCN1CCC[C@@H](Nc2nnc(-c3ccc(Cl)cc3O)n3ccnc23)C1 [Example 15] | < 0.005 | – | –
7 | CN1CCC[C@@H](Nc2nnc(-c3ccc(OC(F)(F)F)cc3)n3cccc23)C1 [Example 4, (R)-N-(1-methylpiperidin-3-yl)-4-(4-(trifluoromethoxy)phenyl)pyrrolo[1,2-d][1,2,4]triazin-1-amine] | 0.02 to 0.1 | 0.02 to 0.1 | –
8 | C[C@]1(O)C[C@@H](Nc2nnc(-c3ccc(C(F)(F)F)cc3O)n3cccc23)C1 [Example 12, 2-(1-(((1s,3s)-3-hydroxy-3-methylcyclobutyl)amino)pyrrolo[1,2-d][1,2,4]triazin-4-yl)-5-(trifluoromethyl)phenol] | – | – | IC50 [3]: 0.005 to 0.02 µM; IC50 [4]: 0.02 to 0.1 µM
9 | CN1CCC[C@@H](Nc2nnc(-c3ccc(C(F)(F)F)cc3O)n3cccc23)C1 [Example 1, (R)-2-(1-((1-methylpiperidin-3-yl)amino)pyrrolo[1,2-d][1,2,4]triazin-4-yl)-5-(trifluoromethyl)phenol] | < 0.005 | < 0.005 | –
10 | C[C@]1(O)C[C@@H](Oc2nnc(-c3ccc(C(F)(F)F)cc3O)c3cccn23)C1 [Example 13, 2-(4-((1s,3s)-3-Hydroxy-3-methylcyclobutoxy)pyrrolo[1,2-d][1,2,4]triazin-1-yl)-5-(trifluoromethyl)phenol] | – | – | IC50 [3]: 0.005 to 0.02 µM; IC50 [4]: 0.02 to 0.1 µM
11 | CN1CC[C@@H](Nc2nnc(-c3ccc(Cl)cc3O)n3ccnc23)C1 [Example 9] | 0.02 to 0.1 | – | –
12 | C[C@]1(O)C[C@@H](Nc2nnc(-c3ccc(C(F)(F)F)cc3O)n3ccc(F)c23)C1 [Example 10, 2-(8-Fluoro-1-(((1s,3s)-3-hydroxy-3-methylcyclobutyl)amino)pyrrolo[1,2-d][1,2,4]triazin-4-yl)-5-(trifluoromethyl)phenol] | < 0.005 | – | –
